According to the supplement of paper PMC10307832:

Experiments:
Assay in all cases: relative viability (nuclei count vs DMSO), 5 days (fraction); higher = more cells survive
Seliciclib + Tozasertib = compound: CC[C@H](CO)Nc1nc(NCc2ccccc2)c2ncn(C(C)C)c2n1 [Seliciclib] + Cc1cc(Nc2cc(N3CCN(C)CC3)nc(Sc3ccc(NC(=O)C4CC4)cc3)n2)n[nH]1 [Tozasertib] (partner 0.1 µM)
How it was run: (§1)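 After 5 days of treatment, lung cancer cells in 1536-well plates were fixed and stained in a single step (final 0.05% Triton X-100, 1% formaldehyde, 1 ug/ml Hoechst) and their nuclei counted on 4× images. Treatment had been applied by pin tool the day after seeding as one drug alone or as a fixed anchor-drug dose with five library-drug doses (not always all listed) in √10 steps. Relative viability is the nuclei count of treated wells divided by that of vehicle wells, and values are medians of duplicate plates.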

Seliciclib + Dasatinib = compound: CC[C@H](CO)Nc1nc(NCc2ccccc2)c2ncn(C(C)C)c2n1 [Seliciclib] + Cc1nc(Nc2ncc(C(=O)Nc3c(C)cccc3Cl)s2)cc(N2CCN(CCO)CC2)n1 [Dasatinib] (partner 0.075 µM)
How it was run: as §1

Seliciclib + Foretinib = compound: CC[C@H](CO)Nc1nc(NCc2ccccc2)c2ncn(C(C)C)c2n1 [Seliciclib] + COc1cc2c(Oc3ccc(NC(=O)C4(C(=O)Nc5ccc(F)cc5)CC4)cc3F)ccnc2cc1OCCCN1CCOCC1 [Foretinib] (partner 0.25 µM)
How it was run: as §1

Seliciclib + Phenformin = compound: CC[C@H](CO)Nc1nc(NCc2ccccc2)c2ncn(C(C)C)c2n1 [Seliciclib] + N=C(N)NC(=N)NCCc1ccccc1 [Phenformin] (partner 250 µM)
How it was run: as §1

Seliciclib + OSI-027 = compound: CC[C@H](CO)Nc1nc(NCc2ccccc2)c2ncn(C(C)C)c2n1 [Seliciclib] + COc1cccc2cc(-c3nc([C@H]4CC[C@H](C(=O)O)CC4)n4ncnc(N)c34)[nH]c12 [OSI-027] (partner 0.5 µM)
How it was run: as §1

Seliciclib + Luminespib = compound: CC[C@H](CO)Nc1nc(NCc2ccccc2)c2ncn(C(C)C)c2n1 [Seliciclib] + CCNC(=O)c1noc(-c2cc(C(C)C)c(O)cc2O)c1-c1ccc(CN2CCOCC2)cc1 [Luminespib] (partner 0.01 µM)
How it was run: as §1

Seliciclib = compound: CC[C@H](CO)Nc1nc(NCc2ccccc2)c2ncn(C(C)C)c2n1 [Seliciclib]
How it was run: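 On vehicle-anchored 1536-well plates, lung cancer cell lines held overnight at 37 °C were pinned with five library-drug doses (not always all listed) spaced by √10. With no medium change over 5 days, they were then fixed, permeabilised and Hoechst-stained in one step and imaged at 4×. MetaXpress counted nuclei, and viability is the median across plates of treated-well over vehicle-well nuclei. Acceptance needed control CV below 25% and at least one doubling.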

## NCI-H1623
Seliciclib + Tozasertib; first compound 0.08 µM
  relative viability: 0.414
Seliciclib + Tozasertib; first compound 0.253 µM
  relative viability: 0.317
Seliciclib + Tozasertib; first compound 0.8 µM
  relative viability: 0.363
Seliciclib + Tozasertib; first compound 2.53 µM
  relative viability: 0.418
Seliciclib + Tozasertib; first compound 8 µM
  relative viability: 0.414
Seliciclib + Dasatinib; first compound 0.08 µM
  relative viability: 0.562
Seliciclib + Dasatinib; first compound 0.253 µM
  relative viability: 0.479
Seliciclib + Dasatinib; first compound 0.8 µM
  relative viability: 0.498
Seliciclib + Dasatinib; first compound 2.53 µM
  relative viability: 0.53
Seliciclib + Dasatinib; first compound 8 µM
  relative viability: 0.603
Seliciclib + Foretinib; first compound 0.08 µM
  relative viability: 0.91
Seliciclib + Foretinib; first compound 0.253 µM
  relative viability: 0.773
Seliciclib + Foretinib; first compound 0.8 µM
  relative viability: 0.716
Seliciclib + Foretinib; first compound 2.53 µM
  relative viability: 0.754
Seliciclib + Foretinib; first compound 8 µM
  relative viability: 0.864
Seliciclib + Phenformin; first compound 0.08 µM
  relative viability: 0.609
Seliciclib + Phenformin; first compound 0.253 µM
  relative viability: 0.545
Seliciclib + Phenformin; first compound 0.8 µM
  relative viability: 0.502
Seliciclib + Phenformin; first compound 2.53 µM
  relative viability: 0.507
Seliciclib + Phenformin; first compound 8 µM
  relative viability: 0.538
Seliciclib + OSI-027; first compound 0.08 µM
  relative viability: 0.425
Seliciclib + OSI-027; first compound 0.253 µM
  relative viability: 0.449
Seliciclib + OSI-027; first compound 0.8 µM
  relative viability: 0.396
Seliciclib + OSI-027; first compound 2.53 µM
  relative viability: 0.415
Seliciclib + OSI-027; first compound 8 µM
  relative viability: 0.415
Seliciclib + Luminespib; first compound 0.08 µM
  relative viability: 0.66
Seliciclib + Luminespib; first compound 0.253 µM
  relative viability: 0.367
Seliciclib + Luminespib; first compound 0.8 µM
  relative viability: 0.568
Seliciclib + Luminespib; first compound 2.53 µM
  relative viability: 0.558
Seliciclib + Luminespib; first compound 8 µM
  relative viability: 0.512
Seliciclib; 0.08 µM
  relative viability: 0.968
Seliciclib; 0.253 µM
  relative viability: 0.867
Seliciclib; 0.8 µM
  relative viability: 0.868
Seliciclib; 2.53 µM
  relative viability: 1.01
Seliciclib; 8 µM
  relative viability: 0.81
